Results on 23 compounds are retold here after patent US20250388582A1, “NOVEL BICYCLIC HETEROARYL COMPOUND AND USE THEREOF” (ILDONG PHARMACEUTICAL CO., LTD., priority 2022, published 2025).

The target in one experiment is T1, human GST-PIKFYVE (Homo sapiens, UniProt Q9Y2I7).
T1 construct: GST; purchased Carna biosciences 11-118
Briefly: ADP-Glo kinase assay, enzyme inhibition activity against human PIKFYVE (Carna biosciences). The experiment is classed as biochemical. The conditions noted are these: inhibitory activity at final compound concentration 10 nM; 1 hour at room temperature. As for the experimental part: The enzyme inhibition activity values for the compounds according to Examples against human PIKFYVE were calculated using the ADP-Glo™ kinase assay service of Carna biosciences, Inc. The enzyme activity evaluation method provided by Carna biosciences Inc., is shown below.
Enzyme inhibition activity was evaluated by reacting the compounds according to Examples with human GST-PIKFYVE (11-118, Carna biosciences), which was purified using glutathione Sepharose chromatography. The reaction buffer used was composed of 50 mmol/L MOPS, 1 mmol/L DTT, and pH 7.2, and all reactions of the test distilled water were performed in the buffer.
Compounds were prepared as solutions in 100% DMSO as 100× stocks and adjusted to have a final sample concentration of 10 nM.
The substrate-enzyme reaction for PIKFYVE was performed by mixing 5 μL human GST-PIKFYVE, 5 μL compounds according to Examples, 5 μL enzyme substrate, and 5 μL purified ATP and reacting for 1 hour at room temperature. After the substrate-enzyme reaction, 20 μL ADP-Glo™ Reagent was added and reacted at room temperature for 40 minutes, then 40 μL Kinase Detection Reagent was added and reacted at room temperature for 40 minutes.
After completion of the reaction, the degree of enzyme activity inhibition was measured by luminescence. The fluorescence of the enzyme activity in the solvent control group […] was set to 100%, and the fluorescence of the enzyme activity in the solvent control group without compound treatment was set to 0%. The inhibitory activity of each compound according to Examples was calculated based on these values.
Background: In ADP-Glo the light output rises with the ADP produced.

In a further experiment the target is T2, PIKFYVE (Homo sapiens, UniProt Q9Y2I7).
T2 construct: host or cells: HEK293 (ATCC, CRL-1573)
T2 sequence (Q9Y2I7 whole entry): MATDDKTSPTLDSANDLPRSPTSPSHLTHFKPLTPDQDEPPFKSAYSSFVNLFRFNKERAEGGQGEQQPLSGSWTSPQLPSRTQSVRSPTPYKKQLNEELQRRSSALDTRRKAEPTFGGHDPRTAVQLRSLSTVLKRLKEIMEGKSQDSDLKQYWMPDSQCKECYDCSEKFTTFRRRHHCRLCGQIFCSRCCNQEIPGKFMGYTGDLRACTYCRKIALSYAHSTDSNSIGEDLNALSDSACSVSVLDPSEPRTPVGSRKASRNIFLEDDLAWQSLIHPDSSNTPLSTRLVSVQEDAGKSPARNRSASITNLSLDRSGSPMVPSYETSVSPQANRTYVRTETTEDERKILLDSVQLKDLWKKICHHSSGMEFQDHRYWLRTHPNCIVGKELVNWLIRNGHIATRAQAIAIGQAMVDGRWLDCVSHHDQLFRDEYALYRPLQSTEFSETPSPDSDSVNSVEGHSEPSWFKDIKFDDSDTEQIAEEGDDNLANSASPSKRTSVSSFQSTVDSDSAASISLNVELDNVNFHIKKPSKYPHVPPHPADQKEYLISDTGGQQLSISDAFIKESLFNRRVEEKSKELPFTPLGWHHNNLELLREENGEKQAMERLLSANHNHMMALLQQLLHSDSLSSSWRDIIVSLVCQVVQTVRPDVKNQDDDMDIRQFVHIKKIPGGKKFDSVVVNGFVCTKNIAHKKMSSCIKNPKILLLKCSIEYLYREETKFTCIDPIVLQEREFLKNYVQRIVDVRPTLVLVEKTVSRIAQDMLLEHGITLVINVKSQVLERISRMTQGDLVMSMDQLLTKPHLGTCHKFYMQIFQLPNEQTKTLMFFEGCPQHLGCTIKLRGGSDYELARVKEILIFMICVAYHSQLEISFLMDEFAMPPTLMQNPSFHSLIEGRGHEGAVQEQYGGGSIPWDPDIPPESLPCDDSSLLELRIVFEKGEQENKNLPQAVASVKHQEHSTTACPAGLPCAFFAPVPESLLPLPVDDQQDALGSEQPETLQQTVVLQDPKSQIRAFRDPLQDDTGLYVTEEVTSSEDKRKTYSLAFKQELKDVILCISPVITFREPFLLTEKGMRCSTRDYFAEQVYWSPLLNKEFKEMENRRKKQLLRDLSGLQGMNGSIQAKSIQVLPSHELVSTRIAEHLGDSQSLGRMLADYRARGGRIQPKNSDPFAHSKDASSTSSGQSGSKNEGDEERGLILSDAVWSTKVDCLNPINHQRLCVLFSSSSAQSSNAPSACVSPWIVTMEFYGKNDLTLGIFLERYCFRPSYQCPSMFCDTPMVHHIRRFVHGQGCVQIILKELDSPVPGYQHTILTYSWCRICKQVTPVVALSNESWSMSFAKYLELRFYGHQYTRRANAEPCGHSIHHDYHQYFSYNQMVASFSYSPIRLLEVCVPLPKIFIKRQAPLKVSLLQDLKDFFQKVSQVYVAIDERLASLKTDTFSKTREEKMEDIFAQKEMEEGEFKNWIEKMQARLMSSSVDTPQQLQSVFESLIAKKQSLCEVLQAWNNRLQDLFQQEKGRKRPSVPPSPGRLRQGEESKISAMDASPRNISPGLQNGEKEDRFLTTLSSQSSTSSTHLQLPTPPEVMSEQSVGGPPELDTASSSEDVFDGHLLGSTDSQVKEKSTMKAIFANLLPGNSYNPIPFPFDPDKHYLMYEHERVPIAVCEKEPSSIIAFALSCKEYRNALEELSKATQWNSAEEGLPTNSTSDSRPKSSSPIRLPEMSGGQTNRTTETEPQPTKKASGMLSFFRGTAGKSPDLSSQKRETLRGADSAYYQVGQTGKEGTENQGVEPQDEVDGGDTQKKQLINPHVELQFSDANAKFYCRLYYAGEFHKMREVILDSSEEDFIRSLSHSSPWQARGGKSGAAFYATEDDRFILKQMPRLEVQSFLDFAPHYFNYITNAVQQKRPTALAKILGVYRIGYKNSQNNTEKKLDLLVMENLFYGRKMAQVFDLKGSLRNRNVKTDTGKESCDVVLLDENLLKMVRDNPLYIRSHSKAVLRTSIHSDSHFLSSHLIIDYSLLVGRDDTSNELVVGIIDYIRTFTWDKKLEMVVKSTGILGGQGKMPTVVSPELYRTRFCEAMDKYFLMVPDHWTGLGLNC
Briefly: NanoBRET TE Intracellular Kinase Assay, interaction of PIKFYVE and compounds in HEK293 cells. The experiment is classed as cell-based. The settings on record: IC50 class from BRET; HEK293 cells expressing PIKFYVE-NanoLuc; 2 hours incubation. As for the experimental part: To predict the efficacy of the compounds according to Example on PIKFYVE in humans, the interaction between PIKFYVE and the compounds was tested using the HEK293 cell line derived from human embryonic kidney (ATCC, CRL-1573) via NanoBRETT TE Intracellular Kinase Assay Service of Carna biosciences Inc., (Japan). The evaluation method provided by Carna biosciences Inc., was shown below and the NanoBRET™ TE Intracellular Kinase Assay, K-8 Kit (Promega, CS1810C88) was used.
The HEK-293 cells cultured in Opti-MEM™ I Reduced Serum Medium (Thermo Fisher, 11058-021) were transfected with Transfection Carrier DNA (Promega, E4881), PIKFYVE-NanoLuc Fusion Vector (Promega, CS1810C225), and FuGENE HD Transfection Reagent (Promega, E2311) to produce cells expressing genes combining PIKFYVE and NanoLuc, followed by culturing 100 μl (2×10^5 cells/ml) each in 96-well plates (Corning, 3917).
10× compounds according to Examples or Comparative Examples prepared by concentration in 1× NanoBRET™ tracer reagent and DMSO were reacted in 96-well plates and incubated for 2 hours in a 37° C., 5% CO2 incubator.
After the reaction was completed, 3× Complete NanoBRET™ Nano-Glo Substrate solution was added to each well, and the reaction was allowed to run for 2-3 minutes at room temperature before BRET was measured using a GloMax Discover Multimode Microplate Reader (Promega).
(BRET reads energy transfer from a luciferase to a nearby fluorophore.)

T1 sequence (Q9Y2I7 whole entry): as above

As usually defined, the IC50 is the concentration that inhibits the measured activity by half. The low end stands for inhibition by little substance, the high end for a need for much substance. With `Cc1cccc(/C=N/Nc2nc(N3CCOCC3)nc3c2ncn3CC(C)C)c1` [Example 17, (E)-4-(9-isobutyl-6-(2-(3-methylbenzylidene)hydrazinyl)-9H-purin-2-yl)morpholine], the “ADP-Glo kinase assay (%, 10 nM)” value on human GST-PIKFYVE turned out to be 69.26%. For the same compound, the IC50 against PIKFYVE lay within 10 to 20 nM. The matching figures for `Cc1cccc(/C=N/Nc2nc(N3CCOCC3)nc3c2ncn3CCc2ccccc2)c1` [Example 18, (E)-4-(6-(2-(3-methylbenzylidene)hydrazinyl)-9-phenethyl-9H-purin-2-yl)morpholine]: 89.87% and at most 10 nM. `Cc1cccc(/C=N/Nc2nc(N3CCOCC3)nc3c2ncn3Cc2ccccn2)c1` [Example 20, (E)-4-(6-(2-(3-methylbenzylidene)hydrazinyl)-9-(pyridin-2-ylmethyl)-9H-purin-2-yl)morpholine]: at human GST-PIKFYVE, the “ADP-Glo kinase assay (%, 10 nM)” value turned out to be 78.53%. On PIKFYVE, this compound had an IC50 of 10 to 20 nM. The like results for `Cc1cccc(/C=N/Nc2nc(N3CCOCC3)nc3c2ncn3CC2CC2)c1` [Example 21, (E)-4-(9-(cyclopropylmethyl)-6-(2-(3-methylbenzylidene)hydrazinyl)-9H-purin-2-yl)morpholine] were, in that order, 60.95% and 20 to 30 nM. The matching figures for `Cc1cccc(/C=N/Nc2nc(N3CCOCC3)nc3c2ncn3CC(=O)c2ccccc2)c1` [Example 22, (E)-2-(6-(2-(3-methylbenzylidene)hydrazinyl)-2-morpholino-9H-purin-9-yl)-1-phenylethan-1-one]: 66.19% and 10 to 20 nM. The like results for `Cc1cccc(/C=N/Nc2nc(N3CCOCC3)nc3c2ncn3CC(=O)c2ccc(Cl)cc2)c1` [Example 25, (E)-1-(4-chlorophenyl)-2-(6-(2-(3-methylbenzylidene)hydrazinyl)-2-morpholino-9H-purin-9-yl)ethan-1-one] were, in that order, 72.46% and 10 to 20 nM. For `Cc1cccc(/C=N/Nc2nc(N3CCOCC3)nc3c2ncn3CC(F)(F)c2ccccn2)c1` [Example 26, (E)-4-(9-(2,2-difluoro-2-(pyridin-2-yl)ethyl)-6-(2-(3-methylbenzylidene)hydrazinyl)-9H-purin-2-yl)morpholine], the “ADP-Glo kinase assay (%, 10 nM)” value on human GST-PIKFYVE was determined as 80.87%. The compound further gave a half-inhibitory concentration (IC50) on PIKFYVE of 10 to 20 nM. For the compound `Cc1cccc(/C=N/Nc2nc(N3CCOCC3)nc3c2ncn3CC(=O)c2cccnc2)c1` [Example 28, (E)-2-(6-(2-(3-methylbenzylidene)hydrazinyl)-2-morpholino-9H-purin-9-yl)-1-(pyridin-3-yl)ethan-1-one], the “ADP-Glo kinase assay (%, 10 nM)” value on human GST-PIKFYVE was found to be 65.48%. Further, at PIKFYVE, the IC50 fell in the range of 20 to 30 nM. The like results for `Cc1cccc(/C=N/Nc2nc(N3CCOCC3)nc3c2ncn3CC(=O)c2cccn2C)c1` [Example 30, (E)-1-(1-methyl-1H-pyrrol-2-yl)-2-(6-(2-(3-methylbenzylidene)hydrazinyl)-2-morpholino-9H-purin-9-yl)ethan-1-one] were, in that order, 76.90% and 10 to 20 nM.

On to `Cc1cccc(/C=N/Nc2nc(N3CCOCC3)nc3c2ncn3CC(=O)c2ccncc2)c1` [Example 32, (E)-2-(6-(2-(3-methylbenzylidene)hydrazinyl)-2-morpholino-9H-purin-9-yl)-1-(pyridin-4-yl)ethan-1-one], for which the “ADP-Glo kinase assay (%, 10 nM)” value at human GST-PIKFYVE came out at 59.60%. Besides, the IC50 against PIKFYVE was 20 to 30 nM.

With `Cc1cccc(/C=N/Nc2nc(N3CCOCC3)nc3c2ncn3CC(=O)c2ccc(C#N)cc2)c1` [Example 35, (E)-4-(2-(6-(2-(3-methylbenzylidene)hydrazinyl)-2-morpholino-9H-purin-9-yl)acetyl)benzonitrile], the “ADP-Glo kinase assay (%, 10 nM)” value on human GST-PIKFYVE was 70.11%. The compound also gave an IC50 against PIKFYVE of 10 to 20 nM.

As for `Cc1cccc(/C=N/Nc2nc(N3CCOCC3)nc3c2ncn3CC(=O)c2cccc(C#N)c2)c1` [Example 36, (E)-3-(2-(6-(2-(3-methylbenzylidene)hydrazinyl)-2-morpholino-9H-purin-9-yl)acetyl)benzonitrile], on human GST-PIKFYVE, the “ADP-Glo kinase assay (%, 10 nM)” value is reported as 76.04%. The compound also returned an IC50 against PIKFYVE of 10 to 20 nM. The like results for `COc1ccccc1C(=O)Cn1cnc2c(N/N=C/c3cccc(C)c3)nc(N3CCOCC3)nc21` [Example 37, (E)-1-(2-methoxyphenyl)-2-(6-(2-(3-methylbenzylidene)hydrazinyl)-2-morpholino-9H-purin-9-yl)ethan-1-one] were, in that order, 89.07% and at most 10 nM.

Take `Cc1cccc(/C=N/Nc2nc(N3CCOCC3)nc3c2ncn3CC(=O)c2ccccc2C)c1` [Example 40, (E)-2-(6-(2-(3-methylbenzylidene)hydrazinyl)-2-morpholino-9H-purin-9-yl)-1-(o-tolyl)ethan-1-one]: the “ADP-Glo kinase assay (%, 10 nM)” value on human GST-PIKFYVE is 86.29%. In addition, the IC50 at PIKFYVE is at most 10 nM. On to `Cc1cccc(/C=N/Nc2nc(N3CCOCC3)nc3c2ncn3CC(=O)c2cccc(C)c2)c1` [Example 41, (E)-2-(6-(2-(3-methylbenzylidene)hydrazinyl)-2-morpholino-9H-purin-9-yl)-1-(m-tolyl)ethan-1-one], for which the “ADP-Glo kinase assay (%, 10 nM)” value on human GST-PIKFYVE worked out at 76.69%. Also, on PIKFYVE, the concentration for half-maximal inhibition (IC50) was at most 10 nM. The like results for `Cc1cccc(/C=N/Nc2nc(N3CCOCC3)nc3c2ncn3CC(=O)c2cccc(C(F)(F)F)c2)c1` [Example 44, (E)-2-(6-(2-(3-methylbenzylidene)hydrazinyl)-2-morpholino-9H-purin-9-yl)-1-(3-(trifluoromethyl)phenyl)ethan-1-one] were, in that order, 62.80% and 20 to 30 nM. The like results for `Cc1cccc(/C=N/Nc2nc(N3CCOCC3)nc3c2ncn3CC(=O)c2ccc(C(F)(F)F)cc2)c1` [Example 45, (E)-2-(6-(2-(3-methylbenzylidene)hydrazinyl)-2-morpholino-9H-purin-9-yl)-1-(4-(trifluoromethyl)phenyl)ethan-1-one] were, in that order, 67.70% and 20 to 30 nM.

With `Cc1cccc(/C=N/Nc2nc(N3CCOCC3)nc3c2ncn3CC(=O)c2cccc(F)c2)c1` [Example 46, (E)-1-(3-fluorophenyl)-2-(6-(2-(3-methylbenzylidene)hydrazinyl)-2-morpholino-9H-purin-9-yl)ethan-1-one], the “ADP-Glo kinase assay (%, 10 nM)” value at human GST-PIKFYVE was found to be 73.96%. The IC50 against PIKFYVE was 10 to 20 nM. The matching figures for `Cc1cccc(/C=N/Nc2nc(N3CCOCC3)nc3c2ncn3CC(=O)c2cccc(Cl)c2)c1` [Example 49, (E)-1-(3-chlorophenyl)-2-(6-(2-(3-methylbenzylidene)hydrazinyl)-2-morpholino-9H-purin-9-yl)ethan-1-one]: 78.87% and at most 10 nM. The matching figures for `Cc1cccc(/C=N/Nc2nc(N3CCOCC3)nc3c2ncn3CC(=O)c2cc(C(F)(F)F)ccn2)c1` [Example 52, (E)-2-(6-(2-(3-methylbenzylidene)hydrazinyl)-2-morpholino-9H-purin-9-yl)-1-(4-(trifluoromethyl)pyridin-2-yl)ethan-1-one]: 67.10% and 20 to 30 nM. Consider `Cc1cccc(/C=N/Nc2nc(N3CCOCC3)nc3c2ncn3CC(=O)c2ccc(F)cn2)c1` [Example 53, (E)-1-(5-fluoropyridin-2-yl)-2-(6-(2-(3-methylbenzylidene)hydrazinyl)-2-morpholino-9H-purin-9-yl)ethan-1-one], for which the “ADP-Glo kinase assay (%, 10 nM)” value on human GST-PIKFYVE turned out to be 70.90%. The IC50 against PIKFYVE lay in the range of 20 to 30 nM.

As for `Cc1cccc(/C=N/n2c(C)nc3c(OCCc4ccccn4)nc(N4CCOCC4)nc32)c1` [Example 208, (E)-N-8-methyl-2-morpholino-(6-(2-pyridin-2-yl)ethoxy)-9H-purin-9-yl-1-(m-tolyl)methanimine], the “ADP-Glo kinase assay (%, 10 nM)” value at human GST-PIKFYVE came to 71.38%.

In the case of `Cc1cccc(/C=N/Nc2nc(N3CCOCC3)nc3nc(-c4cccnc4)ccc23)c1` [Example 216, (E)-4-(4-(2-(3-methylbenzylidene)hydrazinyl)-7-(pyridin-3-yl)pyrido[2,3-d]pyrimidin-2-yl)morpholine], the “ADP-Glo kinase assay (%, 10 nM)” value at human GST-PIKFYVE stood at 63.00%.
